Measurements: patent US20120108669A1, “METHOD OF TREATING SLEEP DISORDERS USING EPLIVANSERIN” (SANOFI-AVENTIS, priority 2008, published 2012)

Tests used:
[1] = test system: patients with chronic (primary) insomnia characterized by sleep maintenance difficulties; test: Study LTE6262: 12-week patient-reported sleep parameters (daily sleep questionnaire, IVRS); format: in vivo, human; conditions: 5 mg/day; for Quality of sleep Difference from Placebo LS Mean / Refreshing QoS Difference from Placebo LS Mean / pr-NAW Difference from Placebo LS Mean / Quality of sleep LS Mean / Refreshing QoS LS Mean / pr-NAW LS Mean: MMRM, ITT; for Quality of sleep LS Mean / Refreshing QoS LS Mean / pr-NAW LS Mean: mean change
From the text: (§1) The Phase 3 program of development of eplivanserin in the treatment of patients with chronic (primary) insomnia characterized by sleep maintenance difficulties consisted of 3 randomized, double-blind (DB), placebo-controlled, efficacy and safety studies designed to assess the efficacy of eplivanserin on sleep maintenance either using polysomnography (PSG) recordings (6-week study EFC6220) or patient-reported outcome (12-week studies LTE6217 and LTE6262) collected daily on sleep questionnaires.
(§2) They were all double-blind (DB), randomized, placebo-controlled studies. In all studies, treatment period was preceded by a one week, placebo run-in period, designed to check selection criteria for insomnia based on patient reported sleep parameters collected on the daily sleep questionnaires (Studies LTE6217, and LTE6262) or based on PSG recordings during two screening nights in a sleep laboratory (Study EFC6220). Treatment period was followed by a placebo run-out period of 2 weeks designed to assess the effect of abrupt treatment discontinuation.
(§3) Studies LTE6217 and LTE6262 measured the efficacy of eplivanserin in real life conditions of use at home by collecting daily sleep parameters reported by patients through an Interactive Voice Response System (IVRS).
In these tables, values are given as an amount of time expressed in minutes and seconds (mm:ss).

[2] = test system: patients exposed to eplivanserin; test: Example 3: diverticulitis in pooled phase 2 and 3 trials; format: in vivo, human; conditions: for Incidence of Diverticulitis by sub-group: all eplivanserin doses
From the text: Hereafter are the observations made in pooled phase 2 and 3 trials with eplivanserin or pharmaceutically acceptable salts or esters thereof.
The majority of patients were non-elderly, females, and Caucasian with a median age between 47 and 51 years across treatment groups.

[3] = test system: patients with chronic (primary) insomnia characterized by sleep maintenance difficulties; test: Study LTE6217: 12-week patient-reported sleep parameters (daily sleep questionnaire, IVRS); format: in vivo, human; conditions: 5 mg/day, MMRM, ITT; for Quality of sleep LS Mean (SEM) / Refreshing quality of sleep LS Mean (SEM) / pr-NAW LS Mean (SEM): mean change
From the text: as §1, §2
Studies LTE6217 and LTE6262 measured the efficacy of eplivanserin in real life conditions of use at home by collecting daily sleep parameters reported by patients through an Interactive Voice Response System (IVRS). […]

[4] = test system: patients with chronic (primary) insomnia characterized by sleep maintenance difficulties; test: Long-term studies LTE6217 and LTE6262 together: patient global impression, daytime function, residual effects; format: in vivo, human
From the text: as §1, §2, §3

[5] = test system: patients with chronic (primary) insomnia characterized by sleep maintenance difficulties; test: Study EFC6220: 6-week polysomnography (PSG) study of sleep maintenance; format: in vivo, human; conditions: for PSG-NAW (number of awakenings) LS mean: p<0.0001
From the text: as §1, §2
Study EFC6220 was designed to measure the pharmacodynamic activity of eplivanserin on sleep maintenance using PSG recordings in a sleep laboratory. Polysomnograms were recorded in standard conditions during 8 hours in bed.

[6] = cited from earlier work
[7] = test system: healthy male subjects; test: Example 2: single-dose cross-over study of sleep (EEG) and daytime functioning; format: in vivo, human
Description: The effects of eplivanserin or pharmaceutically acceptable salts or esters thereof on sleep and daytime functioning in healthy subjects were examined.
Double-blind, randomized, placebo (PBO)-controlled, 4-period, cross-over study with a 1-2-week washout between each period. Single oral doses of eplivanserin or pharmaceutically acceptable salts or esters thereof 1, 10 and 40 mg and PBO were given to healthy male subjects in either the evening (pm) or the morning (am; n=16). Sleep was assessed objectively using an EEG and subjectively by Leeds Sleep Evaluation Questionnaire. Next-day psychomotor function, memory and arousal were measured objectively via Critical Flicker Fusion (CFF), Choice Reaction Time, Compensatory Tracking and Sternberg memory-scanning tasks. Subjective assessment of drug activity was performed using Line Analogue Rating Scales.

[8] = all Phase 2-3 studies, all doses
[9] = 5 mg/day, in comparison with placebo, after 6 and 12 weeks
[10] = single oral 1, 10 and 40 mg, morning or evening, P=0.0001 vs PBO

CN(C)CCO/N=C(/C=C/c1ccc(O)cc1)c1ccccc1F [eplivanserin, (1Z, 2E)-1-(2-fluorophenyl)-3-(4-hydroxyphenyl)-prop-2-en-1-one-O-(2-dimethylaminoethyl)oxime]
persistence of effect on sleep maintenance (pr-WASO) ([1]; observed from Day 1): persisted up to 1 year of treatment
Quality of sleep Difference from Placebo LS Mean ([1]; Week 6): −0.13
Refreshing QoS Difference from Placebo LS Mean ([1]; Week 6): −0.13
pr-NAW Difference from Placebo LS Mean ([1]; Week 6): −0.34
Quality of sleep LS Mean ([1]; Week 6): −0.58
Refreshing QoS LS Mean ([1]; Week 6): −0.55
pr-NAW LS Mean ([1]; Week 6): −0.99
Quality of sleep Difference from Placebo LS Mean ([1]; Week 12): −0.14
Refreshing QoS Difference from Placebo LS Mean ([1]; Week 12): −0.15
pr-NAW Difference from Placebo LS Mean ([1]; Week 12): −0.35
Quality of sleep LS Mean ([1]; Week 12): −0.63
Refreshing QoS LS Mean ([1]; Week 12): −0.60
pr-NAW LS Mean ([1]; Week 12): −1.08
final outcome of diverticulitis ([2]; 30 patients): Recovery was reported as final outcome in all patients, except 2
median time to onset of diverticulitis ([2]; 30 patients with diverticulitis): 58 days
Incidence of Diverticulitis by sub-group ([2]; Age groups (years): <65): 18/2636 (0.7%) (0.41 to 1.08)
Incidence of Diverticulitis by sub-group ([2]; Age groups (years): >=65): 12/394 (3.0%) (1.58 to 5.26)
Incidence of Diverticulitis by sub-group ([2]; BMI (kg/m2): 25-30): 17/1292 (1.3%) (0.77 to 2.10)
Incidence of Diverticulitis by sub-group ([2]; BMI (kg/m2): <25): 6/1121 (0.5%) (0.20 to 1.16)
Incidence of Diverticulitis by sub-group ([2]; BMI (kg/m2): >=30): 7/617 (1.1%) (0.46 to 2.32)
Incidence of Diverticulitis by sub-group ([2]; Concomitant drugs that inhibit prostaglandin synthesis: No): 15/2161 (0.7%) (0.39 to 1.14)
Incidence of Diverticulitis by sub-group ([2]; Concomitant drugs that inhibit prostaglandin synthesis: Yes): 15/869 (1.7%) (0.97 to 2.83)
Incidence of Diverticulitis by sub-group ([2]; Concomitant opioids: No): 27/2999 (0.9%) (0.59 to 1.31)
Incidence of Diverticulitis by sub-group ([2]; Concomitant opioids: Yes): 3/31 (9.7%) (2.04 to 25.75)
Incidence of Diverticulitis by sub-group ([2]; Creatinine clearance at baseline (ml/min): Mild: [50, 80[): 11/669 (1.6%) (0.82 to 2.92)
Incidence of Diverticulitis by sub-group ([2]; Creatinine clearance at baseline (ml/min): Moderate/Severe: <50): 1/44 (2.3%) (0.06 to 12.02)
Incidence of Diverticulitis by sub-group ([2]; Creatinine clearance at baseline (ml/min): Normal: >=80 or Missing): 18/2317 (0.8%) (0.46 to 1.23)
Incidence of Diverticulitis by sub-group ([2]; Gender: Female): 18/1651 (1.1%) (0.65 to 1.72)
Incidence of Diverticulitis by sub-group ([2]; Gender: Male): 12/1379 (0.9%) (0.45 to 1.52)
Incidence of Diverticulitis by sub-group ([2]; Medical history of constipation: No): 27/2943 (0.9%) (0.61 to 1.33)
Incidence of Diverticulitis by sub-group ([2]; Medical history of constipation: Yes): 3/87 (3.4%) (0.72 to 9.75)
Incidence of Diverticulitis by sub-group ([2]; Medical history of diverticular disease (includes diverticulitis): No): 18/2984 (0.6%) (0.36 to 0.95)
Incidence of Diverticulitis by sub-group ([2]; Medical history of diverticular disease (includes diverticulitis): Yes): 12/46 (26.1%) (14.27 to 41.13)
Incidence of Diverticulitis by sub-group ([2]; Medical history of diverticulitis: No): 23/3005 (0.8%) (0.49 to 1.15)
Incidence of Diverticulitis by sub-group ([2]; Medical history of diverticulitis: Yes): 7/25 (28.0%) (12.07 to 49.39)
Incidence of Diverticulitis by sub-group ([2]; Race: Asian/Oriental/Other): 0/138
Incidence of Diverticulitis by sub-group ([2]; Race: Black): 1/162 (0.6%) (0.02 to 3.39)
Incidence of Diverticulitis by sub-group ([2]; Race: Caucasian): 29/2730 (1.1%) (0.71 to 1.52)
exposure adjusted incidence rate of diverticulitis [2, 8]: 3.32 patients with an event per 100 patient-years
patients exposed who developed diverticulitis [2, 8]: 1%
patients exposed who developed diverticulitis ([2]; all Phase 2-3 studies, all doses, n/N): 30/3030
cumulative incidence rate of diverticulitis ([2]; at Week 24, all doses): about 1.6%
time of diverticulitis events after treatment initiation ([2]; clinical trials in patients with sleep disorders): two months on average
duration of diverticulitis episodes, mean ([2]; from the onset of the event): 23 days
duration of diverticulitis episodes, median ([2]; from the onset of the event): 17 days
total episodes of diverticulitis ([2]; in the 30 patients): 39
non-serious cases of diverticulitis ([2]; of 30 patients): 23
serious cases of diverticulitis ([2]; of 30 patients): 7
episodes of diverticulitis of mild intensity ([2]; per Investigator's judgment): Three out of 39
episodes of diverticulitis of moderate intensity ([2]; per Investigator's judgment): 26/39
episodes of diverticulitis of severe intensity ([2]; per Investigator's judgment): 10/39
Quality of sleep Difference from Placebo LS Mean ([3]; Week 6): −0.11
Refreshing quality of sleep Difference from Placebo LS Mean ([3]; Week 6): −0.11
pr-NAW Difference from Placebo LS Mean ([3]; Week 6): −0.39
Quality of sleep LS Mean (SEM) ([3]; Week 6): −0.65 (0.02)
Refreshing quality of sleep LS Mean (SEM) ([3]; Week 6): −0.62 (0.02)
pr-NAW LS Mean (SEM) ([3]; Week 6): −1.16 (0.04)
Quality of sleep Difference from Placebo LS Mean ([3]; Week 12): −0.10
Refreshing quality of sleep Difference from Placebo LS Mean ([3]; Week 12): −0.09
pr-NAW Difference from Placebo LS Mean ([3]; Week 12): −0.33
Quality of sleep LS Mean (SEM) ([3]; Week 12): −0.73 (0.03)
Refreshing quality of sleep LS Mean (SEM) ([3]; Week 12): −0.70 (0.03)
pr-NAW LS Mean (SEM) ([3]; Week 12): −1.27 (0.04)
PGI-item 1 [4, 9]: aid to sleep
PGI-item 3 [4, 9]: increasing duration of sleep
improvement of activities related to work and hobby activities ([4]; after 12 weeks, Study LTE6262 and meta-analysis of LTE6262 and LTE6217, compared with placebo): positive effect
"sleepiness in the morning" and "ability to concentrate" ([4]; reported by insomniac patients, compared with placebo): significantly favourable effect
potential for residual effects (next-day impairment) ([4]; safety analyses): devoid of next-day impairment
sleep onset (PSG-LPS and pr-SOL) ([5]; 5 mg): did not affect sleep onset
percentage of time spent in sleep Stages 3&4 (slow wave sleep) ([5]; 5 mg/day compared with placebo): increased percentage of time
sleep Stage 1 ([5]; 5 mg/day compared with placebo): decrease of Stage 1
PSG-NAW (number of awakenings) LS mean ([5]; Week 3, 5 mg): −1.74
PSG-WASO (Wake after sleep onset) ([5]; Week 3 and Week 6, difference with placebo did not reach statistical significance at Week 6): decreasing PSG-WASO
PSG-NAW (number of awakenings) LS mean ([5]; Week 6, 5 mg): −1.82
number of brief awakenings (<1 min) ([5]; compared to placebo): decreased the number of brief awakenings
QoS (quality of sleep) ([5]; in vivo): improved
REM (rapid eye movement) sleep ([5]; in vivo): not affected
SWS/WASO+Stage 1 index ([5]; in vivo): increase of SWS/WASO+Stage 1 index
half-life time ([6]; average value): 50 h
absorption (well absorbed) ([6]; in vivo): > 70%
Sleep efficiency (time asleep/time in bed) ([7]; P=0.0004 vs PBO): significantly improved
number of awakenings ≧120 s ([7]; P=0.03 vs PBO): significantly reduced
CFF threshold detection ([7]; at all doses): slight decrease
Times to sleep onset and total sleep time ([7]; in vivo): unaffected
treatment-emergent AEs ([7]; in vivo): No serious or severe treatment-emergent AEs were reported
SWS ([7]; regardless of dosage or dose timing (morning or evening)): doubled
next-day objective psychomotor function or memory tests, subjective ratings of 'hangover' or CNS sedation ([7]; regardless of dose, or am or pm administration): no detrimental effects
'deep'/slow-wave sleep (SWS) time [7, 10]: significantly increased
Stage 2 (light) sleep [7, 10]: decreased
